Assay results taken from patent US12227500B2, “Substituted pyrrolo[2,3-b]pyridines for suppressing toxic endoplasmic reticulum stress” (THE TRUSTEES OF COLUMBIA UNIVERSITY IN THE CITY OF NEW YORK, priority 2018, dated 2025).

Columns and labels:
Test in all cases: Radiolabeled ATP kinase assay, panel of 371 kinases (Table S6)
Type in all cases: biochemical
[1] = biological target: T1, panel of 371 human kinases (Homo sapiens, UniProt O00311); conditions: CDC7/DBF4; 0.1 μM; 10 μM ATP; read-out: % Enzyme Activity (relative to DMSO controls)
T1 construct: purchased Reaction Biology Corp
Text: (§1) ; FIG. 38C). […]. Further targeted analyses, such as genetic knock-down or knock-out, may be warranted to parse the role of these additional kinases in our model of neurodegeneration.

[2] = biological target: T2, panel of 371 human kinases (Homo sapiens, UniProt O14757); conditions: CHK1; 0.1 μM; 10 μM ATP; read-out: % Enzyme Activity (relative to DMSO controls)
T2 construct: purchased Reaction Biology Corp
Text: as §1

[3] = biological target: T3, panel of 371 human kinases (Homo sapiens, UniProt O15264); conditions: P38d/MAPK13; 0.1 μM; 10 μM ATP; read-out: % Enzyme Activity (relative to DMSO controls)
T3 construct: purchased Reaction Biology Corp
Text: as §1

[4] = biological target: T4, panel of 371 human kinases (Homo sapiens, UniProt O43318); conditions: TAK1; 0.1 μM; 10 μM ATP; read-out: % Enzyme Activity (relative to DMSO controls)
T4 construct: purchased Reaction Biology Corp
Text: as §1

[5] = biological target: T5, panel of 371 human kinases (Homo sapiens, UniProt O75716); conditions: STK16; 0.1 μM; 10 μM ATP; read-out: % Enzyme Activity (relative to DMSO controls)
T5 construct: purchased Reaction Biology Corp
Text: as §1

[6] = biological target: T6, panel of 371 human kinases (Homo sapiens, UniProt O94806); conditions: PKCnu/PRKD3; 0.1 μM; 10 μM ATP; read-out: % Enzyme Activity (relative to DMSO controls)
T6 construct: purchased Reaction Biology Corp
Text: as §1

[7] = biological target: T7, panel of 371 human kinases (Homo sapiens, UniProt P20794); conditions: MAK; 0.1 μM; 10 μM ATP; read-out: % Enzyme Activity (relative to DMSO controls)
T7 construct: purchased Reaction Biology Corp
Text: as §1

[8] = biological target: T8, panel of 371 human kinases (Homo sapiens, UniProt P21802); conditions: FGFR2; 0.1 μM; 10 μM ATP; read-out: % Enzyme Activity (relative to DMSO controls)
T8 construct: purchased Reaction Biology Corp
Text: as §1

[9] = biological target: T9, panel of 371 human kinases (Homo sapiens, UniProt P36894); conditions: ALK1/BMPR1A; 0.1 μM; 10 μM ATP; read-out: % Enzyme Activity (relative to DMSO controls)
T9 construct: purchased Reaction Biology Corp
Text: as §1

[10] = biological target: T10, panel of 371 human kinases (Homo sapiens, UniProt P41279); conditions: COT1/MAP3K8; 0.1 μM; 10 μM ATP; read-out: % Enzyme Activity (relative to DMSO controls)
T10 construct: purchased Reaction Biology Corp
Text: as §1

[11] = biological target: T11, panel of 371 human kinases (Homo sapiens, UniProt P49759); conditions: CLK1; 0.1 μM; 10 μM ATP; read-out: % Enzyme Activity (relative to DMSO controls)
T11 construct: purchased Reaction Biology Corp
Text: as §1

[12] = biological target: T12, panel of 371 human kinases (Homo sapiens, UniProt P49760); conditions: CLK2; 0.1 μM; 10 μM ATP; read-out: % Enzyme Activity (relative to DMSO controls)
T12 construct: purchased Reaction Biology Corp
Text: as §1

[13] = biological target: T13, panel of 371 human kinases (Homo sapiens, UniProt P51817); conditions: PRKX; 0.1 μM; 10 μM ATP; read-out: % Enzyme Activity (relative to DMSO controls)
T13 construct: purchased Reaction Biology Corp
Text: as §1

[14] = biological target: T14, panel of 371 human kinases (Homo sapiens, UniProt P52564); conditions: MKK6; 0.1 μM; 10 μM ATP; read-out: % Enzyme Activity (relative to DMSO controls)
T14 construct: purchased Reaction Biology Corp
Text: as §1

[15] = biological target: T15, panel of 371 human kinases (Homo sapiens, UniProt P54764); conditions: EPHA4; 0.1 μM; 10 μM ATP; read-out: % Enzyme Activity (relative to DMSO controls)
T15 construct: purchased Reaction Biology Corp
Text: as §1

[16] = biological target: T16, panel of 371 human kinases (Homo sapiens, UniProt P80192); conditions: MLK1/MAP3K9; 0.1 μM; 10 μM ATP; read-out: % Enzyme Activity (relative to DMSO controls)
T16 construct: purchased Reaction Biology Corp
Text: as §1

[17] = biological target: T17, panel of 371 human kinases (Homo sapiens, UniProt Q02156); conditions: PKCepsilon; 0.1 μM; 10 μM ATP; read-out: % Enzyme Activity (relative to DMSO controls)
T17 construct: purchased Reaction Biology Corp
Text: as §1

[18] = biological target: T18, panel of 371 human kinases (Homo sapiens, UniProt Q13188); conditions: MST2/STK3; 0.1 μM; 10 μM ATP; read-out: % Enzyme Activity (relative to DMSO controls)
T18 construct: purchased Reaction Biology Corp
Text: as §1

[19] = biological target: T19, panel of 371 human kinases (Homo sapiens, UniProt Q8IU85); conditions: CAMK1d; 0.1 μM; 10 μM ATP; read-out: % Enzyme Activity (relative to DMSO controls)
T19 construct: purchased Reaction Biology Corp
Text: as §1

[20] = biological target: T20, panel of 371 human kinases (Homo sapiens, UniProt Q8IVT5); conditions: KSR1; 0.1 μM; 10 μM ATP; read-out: % Enzyme Activity (relative to DMSO controls)
T20 construct: purchased Reaction Biology Corp
Text: as §1

[21] = biological target: T21, panel of 371 human kinases (Homo sapiens, UniProt Q8NEV4); conditions: MYO3A; 0.1 μM; 10 μM ATP; read-out: % Enzyme Activity (relative to DMSO controls)
T21 construct: purchased Reaction Biology Corp
Text: as §1

[22] = biological target: T22, panel of 371 human kinases (Homo sapiens, UniProt Q96KB5); conditions: PBK/TOPK; 0.1 μM; 10 μM ATP; read-out: % Enzyme Activity (relative to DMSO controls)
T22 construct: purchased Reaction Biology Corp
Text: as §1

[23] = biological target: T23, panel of 371 human kinases (Homo sapiens, UniProt Q9H4A3); conditions: WNK1; 0.1 μM; 10 μM ATP; read-out: % Enzyme Activity (relative to DMSO controls)
T23 construct: purchased Reaction Biology Corp
Text: as §1

[24] = biological target: T24, panel of 371 human kinases (Homo sapiens, UniProt Q9HCP0); conditions: CK1g1; 0.1 μM; 10 μM ATP; read-out: % Enzyme Activity (relative to DMSO controls)
T24 construct: purchased Reaction Biology Corp
Text: as §1

T13 sequence (P51817 whole entry): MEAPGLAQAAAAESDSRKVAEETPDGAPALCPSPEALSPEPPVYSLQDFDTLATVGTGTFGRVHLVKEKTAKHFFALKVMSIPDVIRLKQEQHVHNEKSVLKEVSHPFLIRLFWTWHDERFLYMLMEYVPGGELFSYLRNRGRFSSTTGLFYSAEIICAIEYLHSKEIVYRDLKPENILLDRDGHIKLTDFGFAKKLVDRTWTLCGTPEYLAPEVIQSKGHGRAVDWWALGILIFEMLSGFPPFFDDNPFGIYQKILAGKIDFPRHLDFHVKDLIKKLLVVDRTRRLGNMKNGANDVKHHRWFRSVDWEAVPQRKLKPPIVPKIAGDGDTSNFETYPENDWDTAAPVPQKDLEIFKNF
T16 sequence (P80192 whole entry): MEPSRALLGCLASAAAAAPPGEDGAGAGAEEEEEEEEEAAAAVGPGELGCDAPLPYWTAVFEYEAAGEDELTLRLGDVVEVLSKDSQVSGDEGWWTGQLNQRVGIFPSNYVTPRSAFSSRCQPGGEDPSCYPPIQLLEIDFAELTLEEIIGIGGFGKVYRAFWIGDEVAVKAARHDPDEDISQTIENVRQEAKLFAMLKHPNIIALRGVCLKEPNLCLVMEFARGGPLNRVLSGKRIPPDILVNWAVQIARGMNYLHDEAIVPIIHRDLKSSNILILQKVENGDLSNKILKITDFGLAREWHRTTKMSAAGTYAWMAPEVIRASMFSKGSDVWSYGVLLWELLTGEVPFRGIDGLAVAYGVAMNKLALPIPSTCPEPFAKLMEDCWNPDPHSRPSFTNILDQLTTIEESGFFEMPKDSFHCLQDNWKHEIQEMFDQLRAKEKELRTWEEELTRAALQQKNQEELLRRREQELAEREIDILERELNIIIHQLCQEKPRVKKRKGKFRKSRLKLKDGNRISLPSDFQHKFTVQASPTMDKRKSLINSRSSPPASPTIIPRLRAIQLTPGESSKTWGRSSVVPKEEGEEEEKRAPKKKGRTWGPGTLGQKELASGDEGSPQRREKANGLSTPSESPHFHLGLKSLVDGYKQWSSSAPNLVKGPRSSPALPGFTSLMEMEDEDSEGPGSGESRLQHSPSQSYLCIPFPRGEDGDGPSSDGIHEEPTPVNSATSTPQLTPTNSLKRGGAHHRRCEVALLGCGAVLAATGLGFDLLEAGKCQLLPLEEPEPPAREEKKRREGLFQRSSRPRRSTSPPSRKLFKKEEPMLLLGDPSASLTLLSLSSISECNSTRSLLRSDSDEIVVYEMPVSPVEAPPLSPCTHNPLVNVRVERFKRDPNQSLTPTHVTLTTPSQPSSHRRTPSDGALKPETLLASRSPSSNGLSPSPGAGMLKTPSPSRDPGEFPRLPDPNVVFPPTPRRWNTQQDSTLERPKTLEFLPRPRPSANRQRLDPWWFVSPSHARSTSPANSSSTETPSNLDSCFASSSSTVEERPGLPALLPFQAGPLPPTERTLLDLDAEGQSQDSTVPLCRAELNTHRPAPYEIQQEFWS
T17 sequence (Q02156 whole entry): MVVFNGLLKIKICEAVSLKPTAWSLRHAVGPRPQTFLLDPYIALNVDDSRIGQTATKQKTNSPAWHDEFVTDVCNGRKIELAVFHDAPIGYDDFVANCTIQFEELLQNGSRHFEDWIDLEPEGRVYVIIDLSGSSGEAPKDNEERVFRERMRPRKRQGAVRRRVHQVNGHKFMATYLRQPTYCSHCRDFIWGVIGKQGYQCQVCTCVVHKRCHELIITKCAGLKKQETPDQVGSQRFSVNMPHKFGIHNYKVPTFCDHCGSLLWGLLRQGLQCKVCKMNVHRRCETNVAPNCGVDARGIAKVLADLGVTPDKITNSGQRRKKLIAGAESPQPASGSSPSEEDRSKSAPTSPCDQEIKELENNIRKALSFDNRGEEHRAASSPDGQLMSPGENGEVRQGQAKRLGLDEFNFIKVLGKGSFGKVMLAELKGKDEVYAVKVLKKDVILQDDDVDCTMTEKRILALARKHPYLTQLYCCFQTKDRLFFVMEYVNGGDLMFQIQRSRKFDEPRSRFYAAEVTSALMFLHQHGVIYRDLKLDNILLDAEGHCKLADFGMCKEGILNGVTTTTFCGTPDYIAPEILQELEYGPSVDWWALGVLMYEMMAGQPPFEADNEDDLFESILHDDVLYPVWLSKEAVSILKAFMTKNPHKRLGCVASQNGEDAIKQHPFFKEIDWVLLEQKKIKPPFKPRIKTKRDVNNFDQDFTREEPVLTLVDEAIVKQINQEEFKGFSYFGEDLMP
T6 sequence (O94806 whole entry): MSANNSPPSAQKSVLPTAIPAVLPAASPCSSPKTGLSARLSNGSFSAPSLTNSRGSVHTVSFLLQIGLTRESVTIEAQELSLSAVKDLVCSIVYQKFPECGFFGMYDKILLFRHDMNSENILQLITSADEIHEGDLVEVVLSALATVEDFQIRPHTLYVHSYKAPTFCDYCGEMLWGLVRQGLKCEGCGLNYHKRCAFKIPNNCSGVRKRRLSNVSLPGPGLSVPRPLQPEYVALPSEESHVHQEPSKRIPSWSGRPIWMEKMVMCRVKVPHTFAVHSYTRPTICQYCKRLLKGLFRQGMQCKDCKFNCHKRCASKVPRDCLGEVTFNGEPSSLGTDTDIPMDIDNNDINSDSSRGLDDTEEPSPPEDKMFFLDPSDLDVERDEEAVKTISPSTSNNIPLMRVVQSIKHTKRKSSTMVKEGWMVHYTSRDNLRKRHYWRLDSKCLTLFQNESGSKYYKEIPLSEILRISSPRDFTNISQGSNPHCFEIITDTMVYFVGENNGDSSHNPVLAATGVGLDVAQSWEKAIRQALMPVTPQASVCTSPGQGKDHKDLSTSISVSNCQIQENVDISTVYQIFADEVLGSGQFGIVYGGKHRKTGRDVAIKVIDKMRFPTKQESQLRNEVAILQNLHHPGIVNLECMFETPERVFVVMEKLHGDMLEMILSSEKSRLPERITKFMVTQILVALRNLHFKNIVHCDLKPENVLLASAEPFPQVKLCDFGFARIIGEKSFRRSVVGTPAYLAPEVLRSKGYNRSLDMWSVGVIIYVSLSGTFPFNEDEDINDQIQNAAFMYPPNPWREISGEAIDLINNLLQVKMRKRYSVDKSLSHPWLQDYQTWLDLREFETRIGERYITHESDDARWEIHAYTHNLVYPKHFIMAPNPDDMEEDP
T12 sequence (P49760 whole entry): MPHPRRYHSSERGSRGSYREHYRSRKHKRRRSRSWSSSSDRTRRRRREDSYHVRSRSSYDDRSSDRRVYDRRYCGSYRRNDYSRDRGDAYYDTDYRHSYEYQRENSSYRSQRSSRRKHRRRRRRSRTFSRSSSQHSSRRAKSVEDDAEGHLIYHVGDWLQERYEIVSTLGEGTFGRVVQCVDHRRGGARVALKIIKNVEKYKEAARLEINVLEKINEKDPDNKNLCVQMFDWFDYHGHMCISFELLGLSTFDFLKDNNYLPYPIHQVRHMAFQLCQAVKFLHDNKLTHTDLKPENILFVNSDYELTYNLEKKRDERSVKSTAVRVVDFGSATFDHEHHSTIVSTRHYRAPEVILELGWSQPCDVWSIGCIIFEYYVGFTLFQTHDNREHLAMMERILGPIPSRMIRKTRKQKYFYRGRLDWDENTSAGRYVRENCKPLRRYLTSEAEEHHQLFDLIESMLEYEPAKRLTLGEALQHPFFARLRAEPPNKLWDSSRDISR
T9 sequence (P36894 24-532): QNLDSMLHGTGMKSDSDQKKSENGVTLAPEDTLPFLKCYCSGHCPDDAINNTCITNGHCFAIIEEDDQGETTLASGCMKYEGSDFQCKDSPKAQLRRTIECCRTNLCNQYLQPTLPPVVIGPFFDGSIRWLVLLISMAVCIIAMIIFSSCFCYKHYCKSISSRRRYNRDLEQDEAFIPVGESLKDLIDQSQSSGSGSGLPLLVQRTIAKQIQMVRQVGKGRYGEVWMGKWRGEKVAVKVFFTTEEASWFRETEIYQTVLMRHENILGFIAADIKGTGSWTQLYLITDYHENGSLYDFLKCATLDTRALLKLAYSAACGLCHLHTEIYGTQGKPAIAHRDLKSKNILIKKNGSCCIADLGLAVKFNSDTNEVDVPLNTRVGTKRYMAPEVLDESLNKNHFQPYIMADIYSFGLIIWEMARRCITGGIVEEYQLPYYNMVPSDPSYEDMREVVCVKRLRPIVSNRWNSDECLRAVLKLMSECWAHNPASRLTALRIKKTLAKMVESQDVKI
T10 sequence (P41279 whole entry): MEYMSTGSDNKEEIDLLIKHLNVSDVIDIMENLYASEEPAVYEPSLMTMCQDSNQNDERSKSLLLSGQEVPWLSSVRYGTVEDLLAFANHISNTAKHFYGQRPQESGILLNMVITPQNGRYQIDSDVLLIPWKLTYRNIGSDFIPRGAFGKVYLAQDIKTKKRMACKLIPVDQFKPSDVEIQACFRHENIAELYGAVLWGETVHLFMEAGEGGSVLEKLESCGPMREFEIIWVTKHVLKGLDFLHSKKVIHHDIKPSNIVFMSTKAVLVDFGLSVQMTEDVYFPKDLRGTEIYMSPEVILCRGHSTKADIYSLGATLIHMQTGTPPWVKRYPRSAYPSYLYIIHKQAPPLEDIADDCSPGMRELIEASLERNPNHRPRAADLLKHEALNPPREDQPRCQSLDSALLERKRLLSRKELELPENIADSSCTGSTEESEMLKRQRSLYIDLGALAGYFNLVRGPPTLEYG
T14 sequence (P52564 whole entry): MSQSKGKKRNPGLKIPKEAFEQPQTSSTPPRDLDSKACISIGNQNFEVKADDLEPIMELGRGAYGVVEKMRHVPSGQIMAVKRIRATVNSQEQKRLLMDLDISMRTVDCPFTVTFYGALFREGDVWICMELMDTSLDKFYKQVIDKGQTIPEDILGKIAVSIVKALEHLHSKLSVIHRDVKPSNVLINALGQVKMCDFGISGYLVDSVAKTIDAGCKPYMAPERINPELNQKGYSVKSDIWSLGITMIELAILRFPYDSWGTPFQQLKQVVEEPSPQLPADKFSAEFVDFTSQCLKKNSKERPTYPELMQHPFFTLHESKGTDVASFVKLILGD

| SMILES | remaining activity at 0.1 µM [1] | remaining activity at 0.1 µM [2] | remaining activity at 0.1 µM [3] | remaining activity at 0.1 µM [4] | remaining activity at 0.1 µM [5] | remaining activity at 0.1 µM [6] | remaining activity at 0.1 µM [7] | remaining activity at 0.1 µM [8] | remaining activity at 0.1 µM [9] | remaining activity at 0.1 µM [10] | remaining activity at 0.1 µM [11] | remaining activity at 0.1 µM [12] | remaining activity at 0.1 µM [13] | remaining activity at 0.1 µM [14] | remaining activity at 0.1 µM [15] | remaining activity at 0.1 µM [16] | remaining activity at 0.1 µM [17] | remaining activity at 0.1 µM [18] | remaining activity at 0.1 µM [19] | remaining activity at 0.1 µM [20] | also measured |
| --- | --- | --- | --- | --- | --- | --- | --- | --- | --- | --- | --- | --- | --- | --- | --- | --- | --- | --- | --- | --- | --- |
| CN1CCN(Cc2ccc(-c3cnc4[nH]cc(-c5ccc6[nH]ccc6c5)c4c3)cc2)CC1 [Compound 1, 3-(1H-Indol-5-yl)-5-(4-((4-methylpiperazin-1-yl)methyl)phenyl)-1H-pyrrolo[2,3-b]pyridine, reference compound] | 100% | 90% | 132% | 84.6% | 100% | 29.1% | 101% | 79.9% | 97% | 101% | 58.8% | 48.2% | 95.5% | 116% | 94.2% | 48.2% | 110% | 102% | 101% | 98% | remaining activity at 0.1 µM [21]: 88.6%; remaining activity at 0.1 µM [22]: 96.8%; remaining activity at 0.1 µM [23]: 117%; remaining activity at 0.1 µM [24]: 143% |
| OCCN1CCN(Cc2ccc(-c3cnc4[nH]cc(-c5cccc(Cl)c5)c4c3)cc2)CC1 [Compound 12k, 2-(4-(4-(3-(3-Chlorophenyl)-1H-pyrrolo[2,3-b]pyridin-5-yl)benzyl)piperazin-1-yl)ethan-1-ol] | 98.3% | 75% | 103% | 77.4% | 109% | 13.6% | 87.5% | 89.5% | 96.8% | 87.5% | 68.6% | 55.8% | 96.1% | 97.9% | 88.7% | 73.7% | 98.6% | 86% | 96.8% | 97.3% | remaining activity at 0.1 µM [21]: 79.1%; remaining activity at 0.1 µM [22]: 97.1%; remaining activity at 0.1 µM [23]: 100%; remaining activity at 0.1 µM [24]: 116% |
